Results on nine molecules are retold here after US20120232062A1, “AZAINDAZOLES TO TREAT FLAVIVIRIDAE VIRUS INFECTION” (EIGER BIOPHARMACEUTICALS, INC., priority 2009, published 2012).

Bounds are passed on as bounds.

A word on the IC50: it is the concentration needed to halve the response being measured. Higher therefore signals a need for much substance.

T1 sequence (Q12809 whole entry): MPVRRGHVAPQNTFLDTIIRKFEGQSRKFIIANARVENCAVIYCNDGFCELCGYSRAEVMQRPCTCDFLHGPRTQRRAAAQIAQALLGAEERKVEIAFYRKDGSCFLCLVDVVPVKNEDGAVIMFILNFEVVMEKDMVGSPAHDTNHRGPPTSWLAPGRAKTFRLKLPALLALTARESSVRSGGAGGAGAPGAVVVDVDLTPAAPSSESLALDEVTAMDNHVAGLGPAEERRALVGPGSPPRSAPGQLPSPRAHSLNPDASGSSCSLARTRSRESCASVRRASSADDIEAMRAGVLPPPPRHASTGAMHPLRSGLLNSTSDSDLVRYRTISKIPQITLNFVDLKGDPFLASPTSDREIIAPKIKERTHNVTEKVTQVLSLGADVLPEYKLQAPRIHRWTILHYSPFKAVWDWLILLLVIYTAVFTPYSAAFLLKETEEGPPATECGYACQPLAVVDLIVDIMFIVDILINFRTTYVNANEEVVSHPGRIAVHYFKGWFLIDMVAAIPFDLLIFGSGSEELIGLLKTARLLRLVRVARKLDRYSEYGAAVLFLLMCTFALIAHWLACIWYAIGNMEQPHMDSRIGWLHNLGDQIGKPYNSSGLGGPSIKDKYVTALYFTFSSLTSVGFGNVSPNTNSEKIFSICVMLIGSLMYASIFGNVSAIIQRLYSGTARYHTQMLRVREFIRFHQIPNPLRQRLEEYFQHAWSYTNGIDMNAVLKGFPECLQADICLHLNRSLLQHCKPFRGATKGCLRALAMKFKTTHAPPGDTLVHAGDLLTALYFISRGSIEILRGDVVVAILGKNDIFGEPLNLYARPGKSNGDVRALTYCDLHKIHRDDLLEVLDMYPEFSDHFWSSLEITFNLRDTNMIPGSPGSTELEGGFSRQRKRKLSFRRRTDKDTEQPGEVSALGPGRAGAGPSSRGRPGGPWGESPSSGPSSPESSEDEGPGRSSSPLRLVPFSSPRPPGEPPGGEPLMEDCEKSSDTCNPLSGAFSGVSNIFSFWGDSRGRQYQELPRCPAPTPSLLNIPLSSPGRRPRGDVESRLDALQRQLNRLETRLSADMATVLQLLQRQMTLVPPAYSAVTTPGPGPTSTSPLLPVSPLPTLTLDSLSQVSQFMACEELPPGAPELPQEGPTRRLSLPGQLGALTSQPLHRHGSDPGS

The experiment addresses T1, hERG channel (Homo sapiens, UniProt Q12809).
T1 construct: host or cells: CHO (Chinese Hamster Ovary), stably transfected
The experiment is described as follows: hERG channel assay. It is filed as cell-based. The conditions noted are these: CHO cell line expressing hERG, whole cell recordings. Here is the method:
The most common mechanism for these adverse events is the inhibition of one or more cardiac potassium channels, in particular hERG. This current is important for cardiac myocyte repolarization and is a common target for drugs that prolong the QT interval. Test articles in this study were therefore characterized to determine their ability to inhibit the hERG channel. Ion channel activity was measured using a stably transfected Chinese Hamster Ovary (CHO) cell line expressing the hERG mRNA. The pharmacology of this cloned channel expressed in the CHO cell line is very similar to that observed in native tissue.
Cells: AVIVA's CHO cell line, which stably expresses hERG channels, was used for the study. Cells were cultured in DMEM/F12 containing 10% FBS, 1% penicillin/streptomycin and 500 μg/ml G418. Before testing, cells were harvested using Accumax (Innovative Cell Technologies).
Solutions: For electrophysiological recordings, the following solutions were used. External Solution: 2 mM CaCl2; 2 mM MgCl2; 4 mM KCl; 150 mM NaCl; 10 mM Glucose; 10 mM HEPES; 310-320 mOsm; pH 7.4 (adjusted with 1M NaOH). Internal Solution: 140 mM KCl; 10 mM MgCl2; 6 mM EGTA; 5 mM HEPESNa; […]; 300-320 mOsm; pH 7.25 (adjusted with 1M KOH).
Electrophysiology: Whole cell recordings were performed using PX 7000A (Axon Instruments) with VIVA's SealChip™ technology. Cells were voltage clamped at a holding potential of −80 mV. The hERG current was then activated by a depolarizing step to −50 mV for 300 ms. This first step at −50 mV was used as a baseline for measuring peak amplitude of the tail current. Next, a voltage step to +20 mV was applied for 5 s to activate the channels. Finally a step back to −50 mV for 5 seconds removed activation and the deactivating tail current was recorded.
Compound Handling and Dilutions: All compounds were prepared from either 10 or 30 mM DMSO stock solutions. Solutions were mixed by sonication for 20 min, followed by vigorous vortexing. Prior to testing, compounds were diluted to test concentrations in glass vials using External Solution. Dilutions were prepared no longer than 20 min prior to use. Equal amounts of DMSO (0.1%) were present in all final dilutions.
Electrophysiology Procedures: After achieving whole cell configuration, cells were monitored for 90 s to assess stability and then washed with External Solution for 66 s. The voltage protocol described above was then applied to the cells every 12 s throughout the procedure. Only stable cells with recording parameters above threshold (see Quality Control section) were allowed to enter the drug addition procedure. External solution containing 0.1% DMSO (vehicle) was applied to the cells to establish a baseline. After allowing the current to stabilize for 3 to 5 min, test articles were applied. Test article solutions were added to cells in 4 separate additions. Cells were kept in test solution until effect of the test article reached steady state, to a maximum of 12 min. Next, 1 μM cisapride (positive control) was added. Finally, washout with External Solution was performed until the recovery current reached a steady state.
Data Analysis: Data analysis was performed using DataXpress (Axon Instruments), Clampfit (Axon Instruments) and Origin (Originlab Corporation) software.
In general terms: The hERG channel carries a current that helps repolarise heart muscle cells.
Molecule `CCC(CC)Oc1ccc2c(C(=O)NC3CCNCC3)n[nH]c2n1` [compound 726] yielded a half-inhibitory concentration (IC50) of more than 10 µM. With `Cn1nc(C(=O)NC2CCN(CCN3CCCCC3)CC2)c2ccc(N3CCCCCC3)nc21` [compound 1047], it took 9.5 µM to reach half-maximal inhibition (IC50). Next, `O=C(NC1CCNCC1)c1nn(C(=O)C2CCCCC2)c2nc(N3CCCCCC3)ccc12.O=C(O)C(F)(F)F.O=C(O)C(F)(F)F.O=C(O)C(F)(F)F` [compound 989]: more than 10 µM; `Clc1ccc(Cn2nc(COCCCN3CCCCC3)c3ccc(N4CCCCCC4)nc32)cc1` [compound 749]: 3.3 µM. As to `CCN1CCC(NC(=O)c2nn(C)c3nc(N4CCCCCC4)ccc23)CC1` [compound 1595], the IC50 worked out at 1.1 µM. The same measure for `Cn1nc(C(=O)NC2CCN(CCN3CCCC3)CC2)c2ccc(N3CCCCCC3)nc21` [compound 1597]: 9.1 µM; for `CCC(CC)Oc1ccc2c(COCC3CCCNC3)nn(Cc3ccc(Cl)cc3)c2n1.O=C(O)C(F)(F)F` (stereo not drawn) [compound 755]: more than 10 µM; for `Cn1nc(C(=O)NC2CCNCC2)c2ccc(N3CCCCCC3)nc21.O=C(O)C(F)(F)F.O=C(O)C(F)(F)F` [compound 697]: more than 10 µM.

Molecule `Cn1nc(C(=O)NC2CCN(CC3CCCCC3)CC2)c2ccc(N3CCCCCCC3)nc21` [compound 1062] displayed an IC50 of more than 10 µM.
